Series [1] can be described thus: Solubility of compound in PBS at pH 7.4 at 300 uM after 24 hrs by HPLC-UV analysis. It counts as physicochemical.
In series [2] the test system is LAPC4. In words: Antiproliferative activity against human LAPC4 cells assessed as reduction in cell viability at 1 to 5 uM after 72 hrs by MTS assay. It counts as functional, cell-based. The settings on record: dose 1-5 µM. For orientation: Tetrazolium dyes change colour on reduction, which living cells bring about.
The subject of series [3] is T47D. In words: Antiproliferative activity against human T47D cells assessed as reduction in cell viability at 1 to 5 uM after 72 hrs by MTS assay. It counts as functional, cell-based. The settings on record: dose 1-5 µM.
The test system of series [4] is MCF7. As to the kind of experiment: Antiproliferative activity against human MCF7 cells assessed as reduction in cell viability at 1 to 5 uM after 72 hrs by MTS assay. Type of series: functional, cell-based. The conditions noted are these: dose 1-5 µM.
The subject of series [5] is PANC-1. As to the kind of experiment: Antiproliferative activity against human PANC-1 cells assessed as reduction in cell viability at 1 to 5 uM after 72 hrs by MTS assay. Type of series: functional, cell-based. The conditions noted are these: dose 1-5 µM.
Another series deals with BXPC-3. In words: Antiproliferative activity against human BXPC-3 cells assessed as reduction in cell viability at 1 to 5 uM after 72 hrs by MTS assay. It counts as functional, cell-based. The conditions noted are these: dose 1-5 µM.
The next series relates to Hs 766. As to the kind of experiment: Antiproliferative activity against human Hs 766 cells assessed as reduction in cell viability at 1 to 5 uM after 72 hrs by MTS assay. It counts as functional, cell-based. The conditions noted are these: dose 1-5 µM.
The subject of series [6] is OVCAR-3. In words: Antiproliferative activity against human OVCAR-3 cells assessed as reduction in cell viability at 1 to 5 uM after 72 hrs by MTS assay. Type of series: functional, cell-based. The settings on record: dose 1-5 µM.
Another series concerns Caov-3 cell line. In words: Antiproliferative activity against human Caov-3 cells assessed as reduction in cell viability at 1 to 5 uM after 72 hrs by MTS assay. It counts as functional, cell-based. The settings on record: dose 1-5 µM.
In the next series the test system is SK-OV-3. As to the kind of experiment: Antiproliferative activity against human SK-OV-3 cells assessed as reduction in cell viability at 1 to 5 uM after 72 hrs by MTS assay. Type of series: functional, cell-based. The conditions noted are these: dose 1-5 µM.
The subject of a further series is PC-3. In words: Antiproliferative activity against human PC-3 cells assessed as reduction in cell viability after 72 hrs by MTS assay. Type of series: functional, cell-based. The conditions noted are these: PC-3, 72 h.
The test system of series [7] is LAPC4. In words: Antiproliferative activity against human LAPC4 cells assessed as reduction in cell viability after 72 hrs by MTS assay. The settings on record: LAPC4, 72 h. Type of series: functional, cell-based.
In a further series the test system is LNCaP. In words: Antiproliferative activity against human LNCaP cells assessed as reduction in cell viability after 72 hrs by MTS assay. It counts as functional, cell-based.
For series [8], the system named is MCF7. As to the kind of experiment: Antiproliferative activity against human MCF7 cells assessed as reduction in cell viability after 72 hrs by MTS assay. Type of series: functional, cell-based. The settings on record: MCF7, 72 h.
For series [9], the system named is T47D. As to the kind of experiment: Antiproliferative activity against human T47D cells assessed as reduction in cell viability after 72 hrs by MTS assay. It counts as functional, cell-based.
In series [10] the test system is OVCAR-3. As to the kind of experiment: Antiproliferative activity against human OVCAR-3 cells assessed as reduction in cell viability after 72 hrs by MTS assay. The conditions noted are these: OVCAR-3, 72 h. Type of series: functional, cell-based.
Series [11] has as its system PANC-1. As to the kind of experiment: Antiproliferative activity against human PANC-1 cells assessed as reduction in cell viability after 72 hrs by MTS assay. It counts as functional, cell-based. The settings on record: PANC-1, 72 h.
Series [12] is described as follows: Stability in human liver s9 fraction assessed as parent compound remaining at 10 uM after 1 hr by LC-MS analysis. It counts as ADME, subcellular. The conditions noted are these: read-out: Stabilty.
Series [13] is described as follows: Solubility of compound in PBS at pH 7.4 at pH 7.4 HPLC analysis. It counts as physicochemical.
Series [14] can be described thus: Solubility of compound in PBS at pH 7.4. It counts as physicochemical.
Series [15] is described as follows: Solubility of compound in PBS at pH 7.4 by shake flask method. Type of series: physicochemical.

The record followed here is ChEMBL document CHEMBL4680140, “Minor chemical modifications of the aminosteroid derivative RM-581 lead to major impact on its anticancer activity, metabolic stability and aqueous solubility” (Eur J Med Chem, 2020).

Structures are written as SMILES. Values after ≈ are worked out from the molar mass of the structure shown. Active and inactive are the calls of the source. No cut-off for these calls is given here.

By solubility is commonly meant how much of the substance goes into solution per volume. Low readings indicate a poorly soluble substance, high ones a readily soluble substance. Usually IC50 stands for the point on the concentration scale where inhibition reaches its midpoint. In general, solubility (thermodynamic) refers to the concentration in solution at equilibrium with solid.

The molecule `C#C[C@]1(O)CC[C@H]2[C@@H]3CC[C@H]4C[C@H](O)[C@@H](N5CCN(C(=O)[C@@H]6CCCN6C(=O)c6ccc7ccccc7n6)CC5)C[C@]4(C)[C@H]3CC[C@@]21C` gave a solubility at 24 h, 300 µM in series [1] of 9 µg/mL (≈ 13.8 µM).

As to `C#C[C@]1(O)CC[C@H]2[C@@H]3CCc4cc(OC)c(N5CCN(C(=O)[C@@H]6CCCN6C(=O)c6ccc7ccccc7n6)CC5)cc4[C@H]3CC[C@@]21C`, the outcome in the series with LAPC4 [2], in the series with T47D [3], in the series with MCF7 [4], in the series on PANC-1 [5], in the series on BXPC-3 and in the series on Hs 766 was Active. Also, the result in the series on OVCAR-3 [6], with Caov-3 cell line and with SK-OV-3 was Active. Also, the IC50 came to 1600 nM in the series with PC-3; 600 nM with LAPC4 [7]; 1200 nM with LNCaP; 2600 nM with MCF7 [8]; 500 nM in the series on T47D [9]; 5000 nM with OVCAR-3 [10]. In addition, the IC50 with PANC-1 [11] was 3900 nM. For the same molecule, the remaining at 1 h, 10 µM in [12] came out at 35%. The molecule also registered a solubility at 24 h, 300 µM in [1] of 2 µg/mL (≈ 3.09 µM).

As for `C#CC1(O)CC[C@H]2[C@@H]3CCc4cc(OP(=O)(O)O)c(N5CCN(C(=O)[C@@H]6CCCN6C(=O)c6ccc7ccccc7n6)CC5)cc4[C@H]3CC[C@@]21C` (single isomer, unassigned), the result in the series with LAPC4 [2], in the series with T47D [3], in the series on MCF7 [4], in the series on PANC-1 [5], with BXPC-3 and in the series on Hs 766 was Active. Moreover, the outcome in the series on OVCAR-3 [6], in the series on Caov-3 cell line and in the series on SK-OV-3 was Active. Also, the half-inhibitory concentration (IC50) with PC-3 was 1300 nM; in the series on LAPC4 [7], 300 nM; with LNCaP it was 600 nM; with MCF7 [8], 1500 nM; in the series with T47D [9], 300 nM; with OVCAR-3 [10], 4600 nM. Besides, the IC50 in the series on PANC-1 [11] turned out to be 2600 nM. In addition, the remaining at 1 h, 10 µM in [12] was 52%. Also, in series [1], the solubility at 24 h, 300 µM is > 720 µg/mL.

On to `CCCSc1ccc2nc(NC(=O)OC)[nH]c2c1` [ALBENDAZOLE], for which, in series [1], the solubility at 24 h, 300 µM was 0.52 µg/mL (≈ 1.96 µM). In series [13], this molecule gave a solubility of 0.74 µg/mL (≈ 2.79 µM).

In series [1], `CC(C)C(=O)Nc1ccc([N+](=O)[O-])c(C(F)(F)F)c1` [FLUTAMIDE] gave a solubility at 24 h, 300 µM of 19.9 µg/mL (≈ 72 µM). This molecule registered a solubility in series [14] of 19.9 µg/mL (≈ 72 µM).

`COc1ccc(Cl)cc1C(=O)NCCc1ccc(S(=O)(=O)NC(=O)NC2CCCCC2)cc1` [GLYBURIDE] displayed a solubility at 24 h, 300 µM in series [1] of 6.7 µg/mL (≈ 13.6 µM). Besides, the solubility (thermodynamic) in [15] worked out at 5.6 µg/mL (≈ 11.3 µM).
